Patent US7485634B2, “Azepinoindole and pyridoindole derivatives as pharmaceutical agents” (Exelixis, Inc., priority 2002, dated 2009)

Key:
[1] = molecular target: T1, full length human farnesoid X receptor (Homo sapiens, UniProt Q96RI1); assay: farnesoid X receptor/ECREx7 co-transfection assay (luciferase reporter, CV-1 cells); assay type: cell-based; details: read-out: agonist activity EC50
T1 construct: CMX-farnesoid X receptor (full length human farnesoid X receptor); expressed in transfected cells; host or cells: CV-1 African Green Monkey Kidney cells
T1 sequence (Q96RI1 1-472 isoform Q96RI1-2): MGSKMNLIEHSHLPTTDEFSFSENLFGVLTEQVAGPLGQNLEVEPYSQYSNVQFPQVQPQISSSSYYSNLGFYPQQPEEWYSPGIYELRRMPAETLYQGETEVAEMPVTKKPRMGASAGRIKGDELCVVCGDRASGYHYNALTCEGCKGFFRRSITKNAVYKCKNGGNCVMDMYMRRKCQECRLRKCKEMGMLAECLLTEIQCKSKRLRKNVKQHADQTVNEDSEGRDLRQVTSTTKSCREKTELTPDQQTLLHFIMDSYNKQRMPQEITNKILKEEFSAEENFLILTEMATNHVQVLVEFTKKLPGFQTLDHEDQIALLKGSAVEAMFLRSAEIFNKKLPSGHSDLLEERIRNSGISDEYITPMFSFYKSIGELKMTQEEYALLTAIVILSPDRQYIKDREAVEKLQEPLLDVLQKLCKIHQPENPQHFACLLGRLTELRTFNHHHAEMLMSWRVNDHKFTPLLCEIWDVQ
T1 sequence (P19793 1-462 partner): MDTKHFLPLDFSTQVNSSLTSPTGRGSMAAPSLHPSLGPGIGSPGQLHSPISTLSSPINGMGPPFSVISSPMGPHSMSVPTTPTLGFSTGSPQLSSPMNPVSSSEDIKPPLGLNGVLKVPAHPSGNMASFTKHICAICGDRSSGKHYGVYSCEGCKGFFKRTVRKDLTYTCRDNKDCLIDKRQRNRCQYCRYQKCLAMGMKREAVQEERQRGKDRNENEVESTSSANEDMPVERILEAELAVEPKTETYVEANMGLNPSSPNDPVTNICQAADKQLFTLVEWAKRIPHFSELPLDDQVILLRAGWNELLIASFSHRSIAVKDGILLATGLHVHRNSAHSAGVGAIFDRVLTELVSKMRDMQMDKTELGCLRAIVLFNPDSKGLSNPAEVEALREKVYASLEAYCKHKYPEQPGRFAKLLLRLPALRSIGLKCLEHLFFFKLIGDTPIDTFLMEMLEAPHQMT
Protocol: The basic co-transfection protocol for measuring the farnesoid X receptor activity is as follows. CV-1 African Green Monkey Kidney cells were plated 24 hours before transfection to achieve approximately 70-80 percent confluency. Cells were transfected with the following expression vectors, CMX-farnesoid X receptor (full length human farnesoid X receptor), CMX-RXRα (full length human RXR), Luc12 (ECREx7-Tk-Luciferase) luciferase reporter gene construct. (See WO 00/76523, Venkateswaran et al., (2000) J. Biol. Chem. 275 14700-14707). A CMX-β-Galactosidase expression vector was used as a transfection control. The transfection reagent used was DOTAP (Boehringer Mannheim). Cells were incubated with the DOTAP/DNA mixture for 5 hours after which the cells were harvested and plated onto either 96 well or 384 well plates containing the appropriate concentration of test compound. The assay was allowed to continue for an additional 18-20 hours, after which the cells were lysed, with lysis buffer (1% triton X 100, 10% glycerol, 5 mM Dithiothreitol, 1 mM EGTA, 25 mM Tricine, pH 7.8) and the luciferase activity measured in the presence of Luciferase assay buffer (0.73 mM ATP, 22.3 mM Tricine, 0.11 mM EGTA, 0.55 mM Luciferin, 0.15 mM Coenzyme A, 0.5 mM HEPES, 10 mM Magnesium sulphate) on a standard luminomter plate reader (PE Biosystems, NorthStar Reader), using recommended operating instructions and conditions.
Both the farnesoid X receptor/ECREx7 co-transfection assay (Example 76) and the TR-FRET assay (Example 75) can be used to establish the EC50/IC50 values for potency and percent activity or inhibition for efficacy. Efficacy defines the activity of a compound relative to a high control (chenodeoxycholic acid, CDCA) or a low control (DMSO/vehicle). The dose response curves are generated from an 8 point curve with concentrations differing by ½ LOG units. Each point represents the average of 4 wells of data from a 384 well plate. The curve for the data is generated by using the equation: Y=Bottom+(Top−Bottom)/(1+10^((LogEC50−X)*HillSlope))
The EC50/IC50 is therefore defined as the concentration at which an agonist or antagonist elicits a response that is half way between the Top (maximum) and Bottom (baseline) values. The EC50/IC50 values represented are the averages of at least 3 independent experiments. The determination of the relative efficacy or % control for an agonist is by comparison to the maximum response achieved by chenodeoxycholic acid that is measured individually in each dose response experiment.
For the antagonist assay, CDCA is added to each well of a 384 well plate to elicit a response. The % inhibition for each antagonist is therefore a measurement of the inhibition of the activity of CDCA.

[2] = molecular target: T2, farnesoid X receptor (Homo sapiens, UniProt Q96RI1); assay: one or more of the in vitro assays described herein (TR-FRET assay, Example 75; co-transfection assay, Example 76); details: for inhibition / IC50: inhibition of the activity of CDCA; for inhibition: 100% = baseline (DMSO only); for IC50: read-out: IC50 (antagonist / partial agonist); for EC50: one or more of the in vitro assays, read-out: EC50 (agonist / partial agonist); for Emax: relative to maximum response of chenodeoxycholic acid (CDCA), read-out: efficacy;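 on all read-outs here: TR-FRET assay or luciferase reporter in CV-1 monkey kidney cells co-transfected with human FXR and RXRα, dose-response over 8 half-log concentrations, CDCA added in antagonist mode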
T2 construct: fused on or other part: GST fused in frame to the N-terminus of the LBD (TR-FRET assay only); Nothing is fused on in the co-transfection assay
T2 sequence (Q96RI1 244-471 isoform Q96RI1-2 limits assumed): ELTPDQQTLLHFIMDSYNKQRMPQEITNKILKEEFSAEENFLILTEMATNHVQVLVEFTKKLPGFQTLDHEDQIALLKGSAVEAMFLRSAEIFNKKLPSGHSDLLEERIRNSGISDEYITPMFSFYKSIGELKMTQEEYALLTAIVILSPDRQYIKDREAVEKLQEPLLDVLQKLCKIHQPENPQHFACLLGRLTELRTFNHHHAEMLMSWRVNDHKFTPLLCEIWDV
Protocol: (Wallac/PE Life Sciences, Cat# AD0059A) in FRET assay buffer (20 mM KH2PO4/K2HPO4 (pH 7.3), 150 mM NaCl, 2 mM CHAPS, 2 mM EDTA, 1 mM DTT) in the presence of the test compound(s) for 2-4 hours at room temperature in a 384 well assay plate. Data was collected using an LJL Analyst using the standard operating instructions and conditions with readings at emission wavelengths of 615 nm and 665 nm after a delay of 65 ps and an excitation wavelength of 330 nm.
The basic co-transfection protocol for measuring the farnesoid X receptor activity is as follows. CV-1 African Green Monkey Kidney cells were plated 24 hours before transfection to achieve approximately 70-80 percent confluency. Cells were transfected with the following expression vectors, CMX-farnesoid X receptor (full length human farnesoid X receptor), CMX-RXRα (full length human RXR), Luc12 (ECREx7-Tk-Luciferase) luciferase reporter gene construct. […] A CMX-β-Galactosidase expression vector was used as a transfection control. The transfection reagent used was DOTAP (Boehringer Mannheim). Cells were incubated with the DOTAP/DNA mixture for 5 hours after which the cells were harvested and plated onto either 96 well or 384 well plates containing the appropriate concentration of test compound. The assay was allowed to continue for an additional 18-20 hours, after which the cells were lysed, with lysis buffer (1% triton X 100, 10% glycerol, 5 mM Dithiothreitol, 1 mM EGTA, 25 mM Tricine, pH 7.8) and the luciferase activity measured in the presence of Luciferase assay buffer (0.73 mM ATP, 22.3 mM Tricine, 0.11 mM EGTA, 0.55 mM Luciferin, 0.15 mM Coenzyme A, 0.5 mM HEPES, 10 mM Magnesium sulphate) on a standard luminomter plate reader (PE Biosystems, NorthStar Reader), using recommended operating instructions and conditions.

[3] = system: db/db mouse; assay: In vivo model of diabetes and dyslipidemia: db/db mouse; details: once daily 10 mg/kg for one week
[4] = system: low density lipoprotein receptor deficient mice (LDLR^−/−); assay: In vivo model of hyperlipidemia and atherosclerosis: LDLR−/− mice consuming a western diet; parameters: species or system mouse
[5] = system: normal mice; assay: In vivo plasma lipid profile, normal mice, one week of daily oral dosing; parameters: species or system mouse
Protocol: To compare the effects of compounds on plasma lipid profiles, including but not limited to cholesterol and triglycerides, animals were dosed with compound for one week and plasma lipid levels monitored throughout the study. Male C57BL/6 mice (n=8) were dosed daily by oral gavage with vehicle or compound. Plasma samples were taken on day −1 (in order to group animals), day 1, 3, and 7. Samples were collected three hours after the daily dose. On day 7 of the study, following plasma collection, animals were euthanized and tissues, such as liver and intestinal mucosa were collected and snap frozen for further analysis. Plasma was analyzed for lipid parameters, such as total cholesterol, HDL cholesterol and triglyceride levels. RNA was extracted from frozen tissues for later analysis by quantitative real time PCR for regulation of key target genes. To identify specificity of target gene regulation by the farnesoid X receptor, knockout mice and C57BL/6 wild-type controls maybe used in this same protocol.

[6] = one week of daily dosing at 10 mg/kg
[7] = 10 mg/kg daily dosing for one week

SMILES: CCOC(=O)C1=CN(C(=O)c2cccc(F)c2)CCc2c1[nH]c1ccccc21 [3-(3-fluorobenzoyl)-1,2,3,6-tetrahydroazepino[4,5-b]indole-5-carboxylic acid ethyl ester]
- EC50 [1]: < 1000 nM

SMILES: O=C(NC1CCC1)C1=CN(C(=O)c2ccc(F)cc2)CCc2c1[nH]c1ccccc21 [3-(4-fluorobenzoyl)-1,2,3,6-tetrahydroazepino[4,5-b]indole-5-carboxylic acid cyclobutylamide]
- EC50 [1]: < 1000 nM

SMILES: CCOC(=O)C1=CN(C(=O)c2ccc(F)cc2)CC(C)(C)c2c1[nH]c1cc(OC(=O)NC3CC3)ccc21 [8-cyclopropylcarbamoyloxy-3-(4-fluorobenzoyl)-1,1-dimethyl-1,2,3,6-tetrahydroazepino[4,5-b]indole-5-carboxylic acid ethyl ester]
- inhibition [2]: 100%
- IC50 [2]: < 100 nM

SMILES: CCOC(=O)C1=CN(C(=O)c2ccc(F)cc2)CC(C)(C)c2c1[nH]c1ccc(N(Cc3ccccc3)C(=O)N(C)C)cc21 [9-(1-benzyl-3,3-dimethyl-ureido)-3-(4-fluoro-benzoyl)-1,1-dimethyl-1,2,3,6-tetrahydro-azepino[4,5-b]indole-5-carboxylic acid ethyl ester]
- inhibition [2]: 100%
- IC50 [2]: < 100 nM

SMILES: CCOC(=O)C1=CN(C(=O)c2ccc(F)cc2)CC(C)(C)c2c1[nH]c1ccc(F)cc21 [9-Fluoro-3-(4-fluoro-benzoyl)-1,1-dimethyl-1,2,3,6-tetrahydro-azepino[4,5-b]indole-5-carboxylic acid ethyl ester]
- EC50 [2]: < 100 nM
- Emax [2]: > 100%

SMILES: CCOC(=O)C1=CN(C(=O)c2ccc(F)c(F)c2)CC(C)(C)c2c1[nH]c1ccccc21 [ethyl 3-(3,4-difluorobenzoyl)-1,1-dimethyl-1,2,3,6-tetrahydroazepino[4,5-b]indole-5-carboxylate]
- plasma free fatty acid levels [3]: declines
- reduction in non-HDL cholesterol [3]: approximately 50%
- reduction in plasma triglycerides [3]: approximately 50%
- decrease of plasma total cholesterol levels [4, 6]: ~50%
- non-HDL cholesterol [4, 6]: decrease
- reduction of plasma triglycerides [4, 6]: greater than 50%
- plasma free fatty acid concentration ([4]; treatment with compound): attenuated
- plasma glucose concentration ([4]; treatment with compound): attenuated
- plasma HDL-cholesterol levels [5, 7]: without affecting
- plasma non-HDL cholesterol [5, 7]: significant lowering
- plasma total cholesterol [5, 7]: decreased
- plasma triglyceride levels ([5]; once daily dosing at 0.1-10 mg/kg for one week): significantly reduced
- Emax [2]: > 100%

SMILES: CCOC(=O)C1=CN(C(=O)c2ccc(F)c(F)c2)CC(C)c2c1[nH]c1ccccc21 (stereo not shown) [ethyl 3-(3,4-difluorobenzoyl)-1-methyl-1,2,3,6-tetrahydroazepino[4,5-b]indole-5-carboxylate]
- EC50 [2]: < 100 nM
- Emax [2]: > 100%

SMILES: CC(C)OC(=O)C1=CN(C(=O)c2ccc(F)c(F)c2)CC(C)(C)c2c1[nH]c1ccccc21 [isopropyl 3-(3,4-difluorobenzoyl)-1,1-dimethyl-1,2,3,6-tetrahydroazepino[4,5-b]indole-5-carboxylate]
- Emax [2]: > 100%

SMILES: CC(C)OC(=O)C1=CN(C(=O)c2ccc(F)c(F)c2)CC(C)c2c1[nH]c1ccccc21 (stereo not shown) [isopropyl 3-(3,4-difluorobenzoyl)-1-methyl-1,2,3,6-tetrahydroazepino[4,5-b]indole-5-carboxylate]
- EC50 [2]: < 100 nM
- Emax [2]: > 100%

SMILES: CCCOC(=O)C1=CN(C(=O)c2ccc(F)cc2)C(C)Cc2c1[nH]c1ccccc21 (stereo not shown) [n-propyl 3(4-fluorobenzoyl)-2-methyl-1,2,3,6-tetrahydroazepino[4,5-b]indole-5-carboxylate]
- EC50 [1]: < 1000 nM

SMILES: CCCOC(=O)C1=CN(C(=O)c2ccc(F)cc2)C(C)Cc2c1[nH]c1cc(F)ccc21 (stereo not shown) [n-propyl 3(4-fluorobenzoyl)-2-methyl-8-fluoro-1,2,3,6-tetrahydroazepino[4,5-b]indole-5-carboxylate]
- EC50 [1]: < 1000 nM
